The nature of this series: Estimated concentration in DMSO-d6 after shaking an excess at 38° C., cooling to 22° C. and decantation (1H-NMR integrals). As to conditions: organic solvent or mixture, thermodynamic from solid, Composition Example 13, excess shaken at 38° C. for 15 min, cooled to 22° C., decanted, no additive, read-out: concentration in the solution (limit of solubility). The format is physicochemical. Here is the method:
A mixture of PEth-16:0/18:1-NMe3 (15 mg), dimethyl sulfone (0.4 mg) and DMSO-d6 (0.75 ml) was shaken at 38° C. for 15 min. The mixture was then allowed to reach ambient temperature (22° C.) and kept at that temperature for 1 h. The solution was then separated from a glassy precipitate by decantation and transferred to an NMR-tube. The concentration of PEth-16:0/18:1-NMe3 in the solution was estimated to be about 3 mg/ml by comparison of ^1H-NMR integrals in the ^1H-NMR spectrum (FIG. 7) of signals from PEth-16:0/18:1-NMe3 with the signal of dimethyl sulfone.

The values below come from patent US9499572B2, “Phosphatidylalkanols and compositions thereof” (Pethmark AB, priority 2013, dated 2016).

Structures can show the parent of a compound that is named as a salt.

`CCCCCCCC/C=C\CCCCCCCC(=O)O[C@H](COC(=O)CCCCCCCCCCCCCCC)COP(=O)(O)OCC` [PEth-16:0/18:1-NMe3, 1-Palmitoyl-2-oleoyl-3-ethoxyhydroxyphosphinyl-sn-glycerol trimethylammonium salt]: the solubility at 15 min was around 3000 µg/mL.
